29 compounds from patent US11014911B2, “CDK2 inhibitors” (Pfizer Inc., priority 2019, dated 2021) can be followed below.

The target of assay [1] is CDK2/Cyclin E1 full length (Homo sapiens (Human), UniProt P24941). The experiment in a line: CDK2/Cyclin E1 full length mobility shift assay. The assay is classed as biochemical.
Another assay addresses GSK3β (H350L) (Homo sapiens (Human), UniProt P49841). As to conditions: read-out: GSK3β Ki.

Sequence of GSK3β (H350L) (P49841 whole entry, stated change not applied): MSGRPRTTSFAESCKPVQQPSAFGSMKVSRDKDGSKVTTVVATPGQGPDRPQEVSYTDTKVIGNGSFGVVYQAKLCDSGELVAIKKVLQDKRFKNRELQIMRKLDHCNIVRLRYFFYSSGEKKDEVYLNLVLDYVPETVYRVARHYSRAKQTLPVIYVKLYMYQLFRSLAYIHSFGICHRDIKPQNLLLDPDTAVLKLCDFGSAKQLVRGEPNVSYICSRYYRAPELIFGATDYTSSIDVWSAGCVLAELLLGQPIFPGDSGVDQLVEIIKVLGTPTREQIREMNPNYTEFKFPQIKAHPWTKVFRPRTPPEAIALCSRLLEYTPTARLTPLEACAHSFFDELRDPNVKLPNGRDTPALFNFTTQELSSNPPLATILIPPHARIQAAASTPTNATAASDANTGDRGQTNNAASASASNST
Procedure for GSK3β (H350L): The assay was initiated with the addition of ATP, following 15 minutes pre-incubation of enzyme and inhibitor at room temperature in the reaction mixture. The reaction was stopped after 30 minutes at room temperature by the addition of 50 μL of 80 mM EDTA.

Take `CCCNC(=O)O[C@@H]1CC[C@H](c2cc(NC(=O)Cc3ccccc3S(=O)(=O)CC)n[nH]2)C1` [Example 205, (1R,3S)-3-[3-({[2-(ethylsulfonyl)phenyl]-acetyl}amino)-1H-pyrazol-5-yl]cyclopentyl propylcarbamate]: the Ki (in general, the dissociation constant of the complex between target and ligand, obtained from inhibition or displacement) was 0.76 nM in assay [1] and 97.7 nM at GSK3β (H350L).

For the compound `CCCNC(=O)O[C@@H]1CC[C@H](c2cc(NC(=O)Cc3cc(C)ccc3S(C)(=O)=O)n[nH]2)C1` [Example 206, (1R,3S)-3-[3-({[5-methyl-2-(methylsulfonyl)phenyl]acetyl}amino)-1H-pyrazol-5-yl]cyclopentyl propylcarbamate], the figures for the Ki (in assay [1]; on GSK3β (H350L)) were 1.22 nM and over 95.3 nM, respectively.

Consider `CCCNC(=O)O[C@@H]1CC[C@H](c2cc(NC(=O)Cc3ccc(OC)cc3S(C)(=O)=O)n[nH]2)C1` [Example 212, (1R,3S)-3-[3-({[4-methoxy-2-(methylsulfonyl)phenyl]acetyl}amino)-1H-pyrazol-5-yl]cyclopentyl propylcarbamate], for which the Ki in assay [1] stood at 0.67 nM; at GSK3β (H350L) it was 77.2 nM.

For `CCCNC(=O)O[C@@H]1CC[C@H](c2cc(NC(=O)Cc3cc(OC)ccc3S(C)(=O)=O)n[nH]2)C1` [Example 213, (1R,3S)-3-[3-({[5-methoxy-2-(methylsulfonyl)phenyl]acetyl}amino)-1H-pyrazol-5-yl]cyclopentyl propylcarbamate], the Ki in assay [1] came out at 0.32 nM; on GSK3β (H350L), 183 nM.

With `CCCNC(=O)O[C@@H]1CC[C@H](c2cc(NC(=O)Cc3cc(OC)ncc3S(C)(=O)=O)n[nH]2)C1` [Example 214, (1R,3S)-3-[3-({[2-methoxy-5-(methylsulfonyl)pyridin-4-yl]acetyl}amino)-1H-pyrazol-5-yl]cyclopentyl propylcarbamate], the Ki in assay [1] turned out to be 0.37 nM; at GSK3β (H350L), 131 nM.

`Cn1cc(CC(=O)Nc2cc([C@H]3CC[C@@H](OC(=O)NCCC(F)(F)F)C3)[nH]n2)cn1` [Example 216, (1R,3S)-3-(3-{[(1-methyl-1H-pyrazol-4-yl)acetyl]amino}-1H-pyrazol-5-yl)cyclopentyl (3,3,3-trifluoropropyl)carbamate]: the Ki was determined as 0.86 nM in assay [1] and 28.2 nM at GSK3β (H350L).

`Cc1cnc(CC(=O)Nc2cc([C@H]3CC[C@@H](OC(=O)NCCC(F)(F)F)C3)[nH]n2)o1` [Example 218, (1R,3S)-3-(3-{[(5-methyl-1,3-oxazol-2-yl)acetyl]amino}-1H-pyrazol-5-yl)cyclopentyl (3,3,3-trifluoropropyl)carbamate]: the Ki is 2.09 nM in assay [1] and 30.6 nM at GSK3β (H350L).

On to `CCNC(=O)O[C@@H]1CC[C@H](c2cc(NC(=O)Cc3ccno3)n[nH]2)C1` [Example 226, (1R,3S)-3-{3-[(1,2-oxazol-5-ylacetyl)amino]-1H-pyrazol-5-yl}cyclopentyl ethylcarbamate], for which the Ki in assay [1] is 3.72 nM; on GSK3β (H350L), 132 nM.

Consider `CCNC(=O)O[C@@H]1CC[C@H](c2cc(NC(=O)Cc3ccc(C)nc3)n[nH]2)C1` [Example 227, (1R,3S)-3-(3-{[(6-methylpyridin-3-yl)acetyl]amino}-1H-pyrazol-5-yl)cyclopentyl ethylcarbamate], for which the inhibition constant Ki came out at 1.21 nM in assay [1] and 18.9 nM at GSK3β (H350L).

For the compound `CCNC(=O)O[C@@H]1CC[C@H](c2cc(NC(=O)Cc3ccc(OC)cc3)n[nH]2)C1` [Example 230, (1R,3S)-3-(3-{[(4-methoxyphenyl)acetyl]amino}-1H-pyrazol-5-yl)cyclopentyl ethylcarbamate], the inhibition constant Ki in assay [1] turned out to be 1.55 nM; on GSK3β (H350L) it was 48.6 nM.

`CCNC(=O)O[C@@H]1CC[C@H](c2cc(NC(=O)Cc3ccc(OC)nc3)n[nH]2)C1` [Example 231, (1R,3S)-3-(3-{[(6-methoxypyridin-3-yl)acetyl]amino}-1H-pyrazol-5-yl)cyclopentyl ethylcarbamate]: the Ki in assay [1] turned out to be 1.18 nM; at GSK3β (H350L), 15.6 nM.

Turning to `CCNC(=O)O[C@@H]1CC[C@H](c2cc(NC(=O)Cc3ccnc(OC)c3)n[nH]2)C1` [Example 232, (1R,3S)-3-(3-{[(2-methoxypyridin-4-yl)acetyl]amino}-1H-pyrazol-5-yl)cyclopentyl ethylcarbamate], the inhibitory constant (Ki) amounted to 1.54 nM in assay [1] and 34.1 nM on GSK3β (H350L).

Regarding `CCNC(=O)O[C@@H]1CC[C@H](c2cc(NC(=O)Cc3cc(F)cc(F)c3)n[nH]2)C1` [Example 233, (1R,3S)-3-(3-{[(3,5-difluorophenyl)acetyl]amino}-1H-pyrazol-5-yl)cyclopentyl ethylcarbamate], the Ki in assay [1] amounted to 0.85 nM; on GSK3β (H350L), 43.4 nM.

In the case of `CCN(C)C(=O)O[C@@H]1CC[C@H](c2cc(NC(=O)Cc3ccc(C)nc3)n[nH]2)C1` [Example 237, (1R,3S)-3-(3-{[(6-methylpyridin-3-yl)acetyl]amino}-1H-pyrazol-5-yl)cyclopentyl ethyl(methyl)carbamate], the values for the inhibition constant (Ki) (in assay [1]; at GSK3β (H350L)) were 0.64 nM and 5.23 nM, respectively.

For the compound `CCN(C)C(=O)O[C@@H]1CC[C@H](c2cc(NC(=O)Cc3ccc(F)cc3)n[nH]2)C1` [Example 238, (1R,3S)-3-(3-{[(4-fluorophenyl)acetyl]amino}-1H-pyrazol-5-yl)cyclopentyl ethyl(methyl)carbamate], the Ki in assay [1] was 1.13 nM; on GSK3β (H350L), 14.7 nM.

As for `CCN(C)C(=O)O[C@@H]1CC[C@H](c2cc(NC(=O)Cc3cnc(C)s3)n[nH]2)C1` [Example 239, (1R,3S)-3-(3-{[(2-methyl-1,3-thiazol-5-yl)acetyl]amino}-1H-pyrazol-5-yl)cyclopentyl ethyl(methyl)carbamate], the inhibition constant Ki is 1.15 nM in assay [1] and 9.44 nM on GSK3β (H350L).

As for `CCN(C)C(=O)O[C@@H]1CC[C@H](c2cc(NC(=O)Cc3ccc(OC)cc3)n[nH]2)C1` [Example 240, (1R,3S)-3-(3-{[(4-methoxyphenyl)acetyl]amino}-1H-pyrazol-5-yl)cyclopentyl ethyl(methyl)carbamate], the Ki in assay [1] came to 0.73 nM; on GSK3β (H350L), 16.1 nM.

In the case of `CCN(C)C(=O)O[C@H]1CC[C@@H](c2cc(NC(=O)Cc3ccnc(OC)c3)n[nH]2)C1` [Example 241, (1S,3R)-3-(3-{[(2-methoxypyridin-4-yl)acetyl]amino}-1H-pyrazol-5-yl)cyclopentyl ethyl(methyl)carbamate], the figures for the Ki (in assay [1]; at GSK3β (H350L)) were 1.04 nM and 13.4 nM, respectively.

As to `CCN(C)C(=O)O[C@@H]1CC[C@H](c2cc(NC(=O)Cc3ccnc(OC)c3)n[nH]2)C1` [Example 242, (1R,3S)-3-(3-{[(2-methoxypyridin-4-yl)acetyl]amino}-1H-pyrazol-5-yl)cyclopentyl ethyl(methyl)carbamate], the results for the Ki (in assay [1]; at GSK3β (H350L)) were 0.81 nM and 9.7 nM, respectively.

In the case of `CCN(C)C(=O)O[C@H]1CC[C@@H](c2cc(NC(=O)Cc3ccc(OC)nc3)n[nH]2)C1` [Example 243, (1S,3R)-3-(3-{[(6-methoxypyridin-3-yl)acetyl]amino}-1H-pyrazol-5-yl)cyclopentyl ethyl(methyl)carbamate], the Ki in assay [1] came out at 0.75 nM; at GSK3β (H350L) it was 5.35 nM.

As for `CCN(C)C(=O)O[C@@H]1CC[C@H](c2cc(NC(=O)Cc3ccc(OC)nc3)n[nH]2)C1` [Example 244, (1R,3S)-3-(3-{[(6-methoxypyridin-3-yl)acetyl]amino}-1H-pyrazol-5-yl)cyclopentyl ethyl(methyl)carbamate], the figures for the Ki (in assay [1]; at GSK3β (H350L)) were 0.57 nM and 3.7 nM, respectively.

In the case of `CCN(C)C(=O)O[C@@H]1CC[C@H](c2cc(NC(=O)Cc3cc(F)cc(F)c3)n[nH]2)C1` [Example 245, (1R,3S)-3-(3-{[(3,5-difluorophenyl)acetyl]amino}-1H-pyrazol-5-yl)cyclopentyl ethyl(methyl)carbamate], the Ki is 0.53 nM in assay [1] and 19.2 nM at GSK3β (H350L).

For `Cc1ccc(CC(=O)Nc2cc([C@H]3CC[C@@H](OC(=O)NCC(F)F)C3)[nH]n2)cn1` [Example 247, (1R,3S)-3-(3-{[(6-methylpyridin-3-yl)acetyl]amino}-1H-pyrazol-5-yl)cyclopentyl (2,2-difluoroethyl)carbamate], the inhibition constant (Ki) in assay [1] was 1.36 nM; on GSK3β (H350L) it was 12.2 nM.

Consider `COc1ccc(CC(=O)Nc2cc([C@H]3CC[C@@H](OC(=O)NCC(F)F)C3)[nH]n2)cc1` [Example 250, (1R,3S)-3-(3-{[(4-methoxyphenyl)acetyl]amino}-1H-pyrazol-5-yl)cyclopentyl (2,2-difluoroethyl)carbamate], for which the inhibition constant (Ki) in assay [1] is 1.62 nM; at GSK3β (H350L) it was 27.4 nM.

With `COc1ccc(CC(=O)Nc2cc([C@H]3CC[C@@H](OC(=O)NCC(F)F)C3)[nH]n2)cn1` [Example 252, (1R,3S)-3-(3-{[(6-methoxypyridin-3-yl)acetyl]amino}-1H-pyrazol-5-yl)cyclopentyl (2,2-difluoroethyl)carbamate], the values for the inhibitory constant (Ki) (in assay [1]; on GSK3β (H350L)) were 1.39 nM and 10.6 nM, respectively.

`O=C(Cc1cc(F)cc(F)c1)Nc1cc([C@H]2CC[C@@H](OC(=O)NCC(F)F)C2)[nH]n1` [Example 253, (1R,3S)-3-(3-{[(3,5-difluorophenyl)acetyl]amino}-1H-pyrazol-5-yl)cyclopentyl (2,2-difluoroethyl)carbamate]: the Ki in assay [1] came out at 1.26 nM; on GSK3β (H350L) it was 28.8 nM.

As to `CCCCNC(=O)O[C@H]1CC[C@@H](c2cc(NC(=O)Cc3ccno3)n[nH]2)C1` [Example 258, (1S,3R)-3-{3-[(1,2-oxazol-5-ylacetyl)amino]-1H-pyrazol-5-yl}cyclopentyl butylcarbamate], the Ki in assay [1] is 0.74 nM; at GSK3β (H350L) it was 10.7 nM.

Consider `CCCCNC(=O)O[C@@H]1CC[C@H](c2cc(NC(=O)Cc3ccno3)n[nH]2)C1` [Example 259, (1R,3S)-3-{3-[(1,2-oxazol-5-ylacetyl)amino]-1H-pyrazol-5-yl}cyclopentyl butylcarbamate], for which the Ki in assay [1] was determined as 0.68 nM; at GSK3β (H350L), 17.4 nM.

For the compound `CC(C)NC(=O)O[C@H]1CC[C@@H](c2cc(NC(=O)c3cnnn3C)n[nH]2)C1` [Example 261, (1S,3R)-3-(3-{[(1-methyl-1H-1,2,3-triazol-5-yl)carbonyl]amino}-1H-pyrazol-5-yl)cyclopentyl propan-2-ylcarbamate], the inhibition constant Ki in assay [1] came to 1 nM; at GSK3β (H350L), 121 nM.
